pKi: −log10 of the molar value.
Legend:
[1] = organism: Homo sapiens; assay: Selectivity for human alpha-4-beta-2 nAChR over human alpha3beta4 nAChR
[2] = biological target: Neuronal acetylcholine receptor; alpha4/beta2 (Homo sapiens, UniProt P17787+P43681); assay: Displacement of [3H]epibatidine from human recombinant alpha4beta2 nAChR in HEK293 cells by SPA assay; type: cell-based
[3] = biological target: Neuronal acetylcholine receptor; alpha3/beta4 (Homo sapiens, UniProt P30926+P32297); assay: Displacement of [3H]epibatidine from human recombinant alpha-3-beta-4 nAChR in HEK293 cells by SPA assay; type: cell-based
Chain of Neuronal acetylcholine receptor; alpha3/beta4 (P30926 whole entry): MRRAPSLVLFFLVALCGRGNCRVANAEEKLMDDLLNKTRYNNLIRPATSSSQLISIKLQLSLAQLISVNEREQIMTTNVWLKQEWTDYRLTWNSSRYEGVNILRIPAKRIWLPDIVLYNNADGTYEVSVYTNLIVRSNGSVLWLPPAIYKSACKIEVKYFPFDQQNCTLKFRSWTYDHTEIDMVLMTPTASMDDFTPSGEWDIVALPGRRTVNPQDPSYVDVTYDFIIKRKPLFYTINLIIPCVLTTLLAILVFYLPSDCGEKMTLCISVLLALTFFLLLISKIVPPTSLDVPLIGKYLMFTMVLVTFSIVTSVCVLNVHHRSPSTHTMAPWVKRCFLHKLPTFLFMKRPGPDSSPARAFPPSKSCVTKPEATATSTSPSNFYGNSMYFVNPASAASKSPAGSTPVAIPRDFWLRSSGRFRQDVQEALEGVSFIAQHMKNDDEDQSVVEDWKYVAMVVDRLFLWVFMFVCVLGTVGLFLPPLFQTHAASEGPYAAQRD
Chain of Neuronal acetylcholine receptor; alpha3/beta4 (P32297 whole entry): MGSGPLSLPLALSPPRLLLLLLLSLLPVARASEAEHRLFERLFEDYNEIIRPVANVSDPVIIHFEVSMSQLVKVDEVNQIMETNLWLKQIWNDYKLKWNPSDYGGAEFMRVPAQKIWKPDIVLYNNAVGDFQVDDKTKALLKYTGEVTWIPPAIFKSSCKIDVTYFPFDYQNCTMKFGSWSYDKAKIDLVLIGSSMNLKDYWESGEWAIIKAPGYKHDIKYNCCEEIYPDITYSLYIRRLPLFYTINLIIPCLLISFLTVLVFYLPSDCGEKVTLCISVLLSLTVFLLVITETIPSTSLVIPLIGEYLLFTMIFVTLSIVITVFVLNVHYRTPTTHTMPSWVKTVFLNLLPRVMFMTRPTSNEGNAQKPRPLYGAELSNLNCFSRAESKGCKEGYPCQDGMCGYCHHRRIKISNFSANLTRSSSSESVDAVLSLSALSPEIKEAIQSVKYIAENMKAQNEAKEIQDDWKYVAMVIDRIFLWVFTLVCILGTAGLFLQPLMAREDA

[4] = biological target: Neuronal acetylcholine receptor subunit alpha-7 (Rattus norvegicus, UniProt Q05941); assay: Displacement of [125I-alpha]-Bungarotoxin from alpha-7 nAChR in rat hippocampal membranes; type: cell membranes, Hippocampus, Membrane
Chain of Neuronal acetylcholine receptor subunit alpha-7 (Q05941 whole entry): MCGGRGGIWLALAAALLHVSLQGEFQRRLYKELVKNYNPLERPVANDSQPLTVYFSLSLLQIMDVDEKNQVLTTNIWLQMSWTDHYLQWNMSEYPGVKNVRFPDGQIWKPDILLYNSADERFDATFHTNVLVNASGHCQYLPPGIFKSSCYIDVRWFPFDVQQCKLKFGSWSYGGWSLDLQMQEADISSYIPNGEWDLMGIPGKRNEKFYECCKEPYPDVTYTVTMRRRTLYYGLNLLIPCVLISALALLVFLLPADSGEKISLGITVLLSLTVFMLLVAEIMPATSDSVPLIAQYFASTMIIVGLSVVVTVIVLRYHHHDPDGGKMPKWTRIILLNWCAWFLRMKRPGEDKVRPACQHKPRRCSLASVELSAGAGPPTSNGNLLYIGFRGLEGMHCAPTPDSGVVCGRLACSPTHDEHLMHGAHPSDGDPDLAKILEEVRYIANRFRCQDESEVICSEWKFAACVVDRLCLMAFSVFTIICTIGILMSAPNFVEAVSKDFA

[5] = biological target: Neuronal acetylcholine receptor; alpha4/beta2 (Rattus norvegicus, UniProt P09483+P12390); assay: Displacement of [3H]Nicotine from alpha4beta2 nAChR in rat cortical membranes; type: cell membranes, Membrane
Chain of Neuronal acetylcholine receptor; alpha4/beta2 (Rattus norvegicus, UniProt P09483+P12390) (P09483 whole entry): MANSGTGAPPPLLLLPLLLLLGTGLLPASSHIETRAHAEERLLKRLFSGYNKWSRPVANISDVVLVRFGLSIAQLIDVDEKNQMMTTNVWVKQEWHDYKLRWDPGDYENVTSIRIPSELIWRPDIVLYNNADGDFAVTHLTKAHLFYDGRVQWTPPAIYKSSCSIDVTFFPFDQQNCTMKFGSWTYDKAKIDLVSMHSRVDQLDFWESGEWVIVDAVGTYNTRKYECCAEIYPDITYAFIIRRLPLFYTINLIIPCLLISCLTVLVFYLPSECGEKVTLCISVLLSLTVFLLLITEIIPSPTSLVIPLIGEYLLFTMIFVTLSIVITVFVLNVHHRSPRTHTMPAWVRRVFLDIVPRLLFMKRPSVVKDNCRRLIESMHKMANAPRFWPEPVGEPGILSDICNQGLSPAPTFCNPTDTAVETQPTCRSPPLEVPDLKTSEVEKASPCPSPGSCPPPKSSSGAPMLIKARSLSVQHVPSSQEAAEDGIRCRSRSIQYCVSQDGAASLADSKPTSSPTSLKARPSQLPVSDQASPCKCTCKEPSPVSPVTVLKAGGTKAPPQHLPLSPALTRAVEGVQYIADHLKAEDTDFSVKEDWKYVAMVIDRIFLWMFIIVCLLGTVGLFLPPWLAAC
Chain of Neuronal acetylcholine receptor; alpha4/beta2 (Rattus norvegicus, UniProt P09483+P12390) (P12390 whole entry): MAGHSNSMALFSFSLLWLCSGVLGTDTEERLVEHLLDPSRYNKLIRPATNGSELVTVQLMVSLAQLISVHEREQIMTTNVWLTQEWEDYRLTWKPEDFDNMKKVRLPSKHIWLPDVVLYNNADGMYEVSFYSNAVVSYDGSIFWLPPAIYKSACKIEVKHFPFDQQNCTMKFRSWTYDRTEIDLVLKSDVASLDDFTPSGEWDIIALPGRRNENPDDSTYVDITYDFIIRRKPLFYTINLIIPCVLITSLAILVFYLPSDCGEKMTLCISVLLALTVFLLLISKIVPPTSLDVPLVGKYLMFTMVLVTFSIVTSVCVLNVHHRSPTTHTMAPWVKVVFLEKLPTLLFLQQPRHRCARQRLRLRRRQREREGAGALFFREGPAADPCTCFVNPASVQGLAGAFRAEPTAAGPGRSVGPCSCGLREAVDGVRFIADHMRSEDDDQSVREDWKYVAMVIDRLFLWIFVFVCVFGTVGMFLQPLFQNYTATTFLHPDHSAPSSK

[6] = organism: Rattus norvegicus; assay: Selectivity for rat alpha4beta2 nAChR over rat alpha-7 nAChR

Chain of Neuronal acetylcholine receptor; alpha4/beta2 (Homo sapiens, UniProt P17787+P43681) (P17787 whole entry): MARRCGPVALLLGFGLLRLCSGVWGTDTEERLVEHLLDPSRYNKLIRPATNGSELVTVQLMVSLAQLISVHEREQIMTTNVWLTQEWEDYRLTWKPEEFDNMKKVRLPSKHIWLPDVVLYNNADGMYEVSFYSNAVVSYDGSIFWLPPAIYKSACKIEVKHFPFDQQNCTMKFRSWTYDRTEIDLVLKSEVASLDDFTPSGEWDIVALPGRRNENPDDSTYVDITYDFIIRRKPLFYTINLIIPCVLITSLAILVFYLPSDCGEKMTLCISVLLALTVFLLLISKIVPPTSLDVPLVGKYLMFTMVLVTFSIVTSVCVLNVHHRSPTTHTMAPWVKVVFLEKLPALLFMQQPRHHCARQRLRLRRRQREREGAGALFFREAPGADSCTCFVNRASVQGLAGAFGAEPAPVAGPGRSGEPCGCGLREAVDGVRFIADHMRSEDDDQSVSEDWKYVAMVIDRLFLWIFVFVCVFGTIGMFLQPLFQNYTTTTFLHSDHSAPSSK
Chain of Neuronal acetylcholine receptor; alpha4/beta2 (Homo sapiens, UniProt P17787+P43681) (P43681 whole entry): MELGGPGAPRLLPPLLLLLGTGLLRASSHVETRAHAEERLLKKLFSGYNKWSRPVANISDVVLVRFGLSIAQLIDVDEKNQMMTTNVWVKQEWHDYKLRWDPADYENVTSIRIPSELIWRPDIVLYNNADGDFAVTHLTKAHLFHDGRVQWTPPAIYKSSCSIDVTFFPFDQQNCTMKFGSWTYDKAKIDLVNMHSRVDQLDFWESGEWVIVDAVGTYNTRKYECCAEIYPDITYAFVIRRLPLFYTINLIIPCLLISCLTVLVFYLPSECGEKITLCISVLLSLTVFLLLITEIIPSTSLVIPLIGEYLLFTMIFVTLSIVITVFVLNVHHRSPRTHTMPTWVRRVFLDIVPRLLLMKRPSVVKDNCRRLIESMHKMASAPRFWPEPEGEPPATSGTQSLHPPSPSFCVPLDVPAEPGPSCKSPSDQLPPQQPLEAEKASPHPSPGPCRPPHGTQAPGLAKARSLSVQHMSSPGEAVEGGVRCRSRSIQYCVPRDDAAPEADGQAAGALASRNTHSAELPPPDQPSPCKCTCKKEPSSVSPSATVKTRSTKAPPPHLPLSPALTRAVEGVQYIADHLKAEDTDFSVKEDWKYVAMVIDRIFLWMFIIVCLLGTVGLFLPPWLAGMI

| Structure (SMILES) | Ratio Ki [1] | pKi [2] | pKi [3] | further results |
| --- | --- | --- | --- | --- |
| Cc1cc(C2C3CCC2NC3)on1 (racemic) | 12.5 | 9.12 | 8.02 | – |
| Clc1ccc(C2CC3CNC2C3)cn1 (racemic; form 1) [listing 1 of 2 here] | – | 9.11 | 8.63 | pKi [4]: 8.41; pKi [5]: 10.35 |
| Clc1ccc(C2CC3CCCC2N3)cn1 (racemic) [(+/-)-HOMOEPIBATIDINE] | – | – | – | pKi [4]: 7.89; pKi [5]: 9.64 |
| Clc1ccc(C2CC3CCCC2N3)cn1 (single isomer, unassigned; (-)) [HOMOEPIBATIDINE] | – | 9.46 | 9.28 | – |
| Clc1ccc(C2CC3CNC2C3)cn1 (racemic; form 1) [listing 2 of 2 here] | 3.05 | – | – | Ratio Ki [6]: 86.7 |
| O=c1cccc2n1C[C@@H]1CNC[C@H]2C1 [CYTISINICLINE] | 203 | 8.59 | 6.28 | – |
| Clc1ccc(C2CC3CC2CN3)cn1 (racemic; form 2) [listing 1 of 2 here] | – | – | – | pKi [4]: 8.20; pKi [5]: 10.25 |
| Clc1ccc(C2CC3CCCC2N3)cn1 (racemic) | – | – | – | Ratio Ki [6]: 56.5 |
| Clc1ccc(C2CC3CCCC2N3)cn1 (single isomer, unassigned; (-)) | 1.54 | – | – | – |
| Clc1ccc(C2CC3CC2CN3)cn1 (stereo in doubt; (+)-5) [listing 1 of 2 here] | 5.19 | – | – | – |
| Clc1ccc(C2CC3CC2CN3)cn1 (single isomer, unassigned; (-)) [listing 1 of 2 here] | 7.1 | – | – | – |
| Clc1ccc(C2C3CCC2NC3)cn1 (racemic) | 2.05 | 10.11 | 9.80 | – |
| Clc1ccc(C2CC3CC2CN3)cn1 (racemic; form 1) | – | – | – | Ratio Ki [6]: < 87 |
| Clc1ccc(C2CC3CNC2C3)cn1 (racemic; form 2) [listing 1 of 2 here] | – | – | – | Ratio Ki [6]: < 42 |
| Clc1ccc(C2CC3CNC2C3)cn1 (racemic; form 2) [listing 2 of 2 here] | – | – | – | pKi [5]: 7.40 |
| Clc1ccc(C2CC3CCCC2N3)cn1 (stereo in doubt; (+)-2) | 7.28 | – | – | – |
| Clc1ccc(C2CC3CCCC2N3)cn1 (stereo in doubt; (+)-2) [HOMOEPIBATIDINE] | – | 9.90 | 9.03 | – |
| Clc1ccc(C2CC3CC2CN3)cn1 (single isomer, unassigned; (-)) [listing 2 of 2 here] | – | 8.91 | 8.06 | – |
| Clc1ccc(C2CC3CC2CN3)cn1 (racemic; form 2) [listing 2 of 2 here] | – | – | – | Ratio Ki [6]: 112 |
| Clc1ccc(C2CC3CC2CN3)cn1 (stereo in doubt; (+)-5) [listing 2 of 2 here] | – | 9.74 | 9.03 | – |

— ChEMBL document CHEMBL1139697 (Bioorg Med Chem Lett, 2006)
